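96-well plates; 48 h exposure; 5 concentrations. Endpoints by linear interpolation between flanking doses. Not reached: highest tested concentration assigned. GI50 is the concentration that inhibits growth by half. TGI: total growth inhibition.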
Columns and labels:
Test in all cases: inhibition of tumour cell growth, NCI panel, 48 h
[1] = test system: 786-0 renal
[2] = test system: DU-145 prostate
[3] = test system: EKVX NSCLC
[4] = test system: MCF7 breast
[5] = test system: MDA-MB-231 breast
[6] = test system: OVCAR-4 ovarian
[7] = test system: SF-295 CNS
[8] = test system: UACC-62 melanoma
[9] = test system: HOP-92 NSCLC
[10] = test system: RXF 393 renal

Structure (SMILES)	TGI [1] [µM]	TGI [2] [µM]	TGI [3] [µM]	TGI [4] [µM]	TGI [5] [µM]	TGI [6] [µM]	TGI [7] [µM]	TGI [8] [µM]	TGI [9] [µM]	TGI [10] [µM]	GI50 [10] [µM]	GI50 [8] [µM]
COC(=O)c1ccccc1CC1Cc2ccc3c(c2C1=O)CCCC3 (centres undefined)	> 100	> 100	> 100	> 100	> 100	> 79.4	> 100	> 100	–	–	–	–
COc1ccc(-c2c(C#N)c(-c3ccc(C)cc3)n(NS(=O)(=O)c3ccc(C)cc3)c(=O)c2C#N)cc1	> 100	–	> 100	> 100	> 100	> 100	> 100	> 100	> 100	> 100	–	–
COc1cc(C2c3cc4c(cc3OC(N3CCOCC3)C2C)OCO4)ccc1O (centres undefined)	> 100	> 100	> 100	> 83	–	> 100	38.2	> 100	> 100	27.6	–	–
CCC(C(=O)O)c1ccc(OC)cc1 (centres undefined)	–	–	> 100	–	–	> 100	> 100	> 100	> 100	> 100	–	–
CCCCC#C[I+]c1ccccc1	28.8	–	33.4	–	–	28.9	43.5	33	24.1	36.9	–	–
CCOC(=O)c1csc(NC(=O)CN2CCOCC2)n1	–	> 100	> 100	> 100	> 100	> 100	> 100	> 100	> 100	> 100	–	–
Cc1ccc(C(=O)O)cc1S(=O)(=O)Nn1cnc2ccc(S(=O)(=O)Nc3ccccc3C(=O)O)cc2c1=O	> 100	> 100	> 100	> 100	> 100	> 100	> 100	> 100	> 100	–	–	–
O=[N+]([O-])c1ccc2c(c1)c(OCc1ccccc1)nn2Cc1ccccc1	> 100	> 100	–	> 100	> 100	–	> 100	> 100	–	> 100	–	–
Cc1cc(Cc2cc(C)c(N)cc2N)c(N)cc1N	> 100	> 100	> 100	> 100	> 100	> 100	> 100	> 100	–	> 100	–	–
N#CC1(C#N)N[C@@H](c2ccsc2)[C@H]2C(=O)N(c3ccccc3)C(=O)[C@H]21	> 100	> 100	> 100	–	> 100	–	> 100	> 100	> 100	> 100	–	–
O=C(CCN1CCCCC1)C(=Cc1ccccc1)C(=O)CCN1CCCCC1	–	–	> 100	> 100	–	> 100	> 100	> 100	> 96.8	34.3	16.9	8.82
C=C(C)C(=O)OC1C/C(CO)=C\C(O)C/C(C)=C/C2OC(=O)C(=C)C21 (centres undefined)	37.1	–	69.1	–	–	63.4	> 100	39.1	38.2	–	–	–
CCOC(=O)CSc1c(C(=O)OCC)c(=O)n(-c2ccccc2)c(=S)n1-c1ccccc1	> 100	> 100	> 100	> 100	–	> 100	> 100	> 100	20.6	–	–	–
